Measured values as given in patent publication US11319347B2, “Peptide compound and method for producing same, composition for screening use, and method for selecting peptide compound” (FUJIFILM Corporation, priority 2017, dated 2022).
Starred links: 1 amine or outer side, 2 acyl side, 3 side chain; linkers in the order of their positions; H or OH if unused. Positions of bridges follow the written chain, without caps; N, C: chain ends. Non-standard residues stand in square brackets, D forms with d. Residues, ends and D or L forms follow the SMILES beside them. Phe(3-(4R-CO-2-thiazolinyl)) = O=C([C@H](Cc1cccc(C2=N[C@H](C(=O)[*:3])CS2)c1)N[*:1])[*:2]; dCha = N[C@H](CC1CCCCC1)C(=O)O

How the values were obtained:
[1] = Membrane permeability of synthesized cyclic peptides by PAMPA (Measurement Method A: 1 μmol/L; Method B: 10 μmol/L); type: in vitro ADME; details: Measurement method A, 25° C., 4 hours
Protocol: Evaluation of membrane permeability of synthesized cyclic peptide by PAMPA method In order to compare and examine the membrane permeability of the synthesized cyclic peptide, parallel artificial membrane permeability assay (PAMPA) was carried out.
An artificial phospholipid membrane was produced by adding 5 μL of a phospholipid organic solvent solution consisting of L-α-phosphatidylcholine (Avanti Polar Lipids, Inc., Cat. 840051P, 1.67%), 1,2-dioleoyl-sn-glycero-3-phospho-L-serine (Avanti Polar Lipids, Inc., Cat. 840035P, 0.33%), and n-dodecane special grade (Wako Pure Chemical Industries, Ltd., 047-21612)/1-octanol reagent special grade (Kanto Chemical Co., Inc., Cat. 31013-08)=10:1 to Filter Plate (Merck Millipore Corporation, Cat. MAIPN4550).
475 μL of 50 mmol/L potassium phosphate buffer (KPB, pH 7.4 or pH 6.5) was added to 25 μL of a DMSO solution containing the compound at a concentration of 20 μmol/L, so that the compound was diluted to a final concentration of 1 μmol/L. 300 μL of the compound solution was added to the lower side (donor side) of PAMPA 96-well plate (Filter Plate (Merck Millipore Corporation, Cat. MAIPN4550)) with an artificial phospholipid membrane being interposed therebetween. 200 μL of 5% DMSO KPB (pH 7.4) was added to the upper side (acceptor side) with the artificial phospholipid membrane being interposed therebetween. A permeation test through an artificial phospholipid membrane was carried out at 25° C. for 4 hours. The compound concentration in the solution in the donor plate and the acceptor plate was measured by LC/MS/MS, and the membrane permeation rate (Pe) of the compound was calculated from the following formula, assuming that C0 is an initial compound concentration in donor solution, t is a test time, A is a membrane filter area=0.3 cm^2, VD is a donor solution amount=300 μL, VA is an acceptor solution amount=200 μL, and CD(t) is a compound concentration in donor solution at time t, CA(t) is a compound concentration in acceptor solution at time t, and Cequilibrium=[CD(t)*VD+CA(t)*VA]/(VD+VA).
475 μL of 50 mmol/L potassium phosphate buffer (KPB, pH 7.4 or pH 6.5) was added to 25 μL of a DMSO solution containing the compound at a concentration of […], so that the compound was diluted to a final concentration of 10 μmol/L. The compound solution was added 300 μL each to the lower side (donor side) of an artificial phospholipid membrane of PAMPA 96-well plate (Filter Plate (Merck Millipore Corporation, Cat. MAIPN4550)). 200 μL of 5% DMSO KPB (pH 7.4) was added to the upper side (acceptor side) with the artificial phospholipid membrane being interposed therebetween. A permeation test through an artificial phospholipid membrane was carried out at 25° C. for 4 hours. The compound concentration in the solution in the donor plate and the acceptor plate was measured by LC/MS/MS, and the membrane permeation rate (Pe) of the compound was calculated from the following formula, assuming that Co is an initial compound concentration in donor solution, t is a test time, A is a membrane filter area=0.3 cm^2, VD is a donor solution amount=300 μL, VA is an acceptor solution amount=200 μL, and CD(t) is a compound concentration in donor solution at time t, CA(t) is a compound concentration in acceptor solution at time t, and Cequilibrium=[CD(t)*VD+CA(t)*VA]/(VD+VA).
The membrane permeability (Pe(10^−6 cm/s)) obtained by this method is described in the following table.
(§1) Evaluation standards are as follows.

[2] = Metabolic stability of cyclic peptides in human liver microsomes (HLM residual rate); type: in vitro ADME; details: 1 μmol/L, human liver microsomes 0.5 mg protein/mL, 37° C., 20 minutes, NADPH and UDPGA
Protocol: Test of metabolic stability of cyclic peptide in human liver microsome
An experiment using human liver microsomes (HLMs) was carried out in order to compare and examine the metabolic stability of the synthesized cyclic peptides.
The compound with a final concentration of 1 μmol/L was incubated in human liver microsomes (BD Cat #452117) prepared to a final concentration of 0.5 mg protein/mL using 100 mmol/L phosphate buffer (pH 7.4) at 37° C. for 20 minutes in the presence of reduced nicotinamide adenine dinucleotide phosphate (NADPH) and uridine 5′-diphosphate-α-D-glucuronic acid (UDPGA). Deproteinization treatment with acetonitrile was carried out, the amount of unaltered substance remaining was quantified using LC/MS/MS, and the residual rate (%) in 20 minutes was calculated. The HLM residual rate (%) obtained by this method is described in the following table.
as §1

Row | Compound | Pe(10^−6 cm/sec) [1] | HLM residual rate [2]
1 | N=C(N)NCCC[C@@H]1NC(=O)[C@H](Cc2c[nH]c3ccccc23)NC(=O)[C@@H](CC2CCCCC2)NC(=O)[C@@H]2CCCN2C(=O)[C@@H]2CSC(=N2)c2cc3c(cccc3s2)C[C@@H](C(N)=O)NC1=O [2-1] | +++ (0.5<Pe (10^−6 cm/s)) | +++ (60%<HLM residual rate (%))
2 | N=C(N)NCCC[C@@H]1NC(=O)[C@H](Cc2c[nH]c3ccccc23)NC(=O)[C@@H](CC2CCCCC2)NC(=O)[C@@H]2CCCN2C(=O)[C@@H]2CSC(=N2)c2ccncc2C[C@@H](C(N)=O)NC1=O [2-5] | ++ (0.2<Pe (10^−6 cm/s)≤0.5) | ++ (40%<HLM residual rate (%)≤60%)
3 | N=C(N)NCCC[C@@H]1NC(=O)[C@H](Cc2c[nH]c3ccccc23)NC(=O)[C@@H](CC2CCCCC2)NC(=O)[C@@H]2CCCN2C(=O)[C@@H]2CSC(=N2)c2cccnc2C[C@@H](C(N)=O)NC1=O [2-6] | ++ (0.2<Pe (10^−6 cm/s)≤0.5) | +++ (60%<HLM residual rate (%))
4 | N=C(N)NCCC[C@@H]1NC(=O)[C@H](Cc2c[nH]c3ccccc23)NC(=O)[C@@H](CC2CCCCC2)NC(=O)[C@@H]2CCCN2C(=O)[C@@H]2CSC(=N2)c2cncc(c2)C[C@@H](C(N)=O)NC1=O [2-7] | +++ (0.5<Pe (10^−6 cm/s)) | +++ (60%<HLM residual rate (%))
5 | N=C(N)NCCC[C@@H]1NC(=O)[C@H](Cc2c[nH]c3ccccc23)NC(=O)[C@@H](CC2CCCCC2)NC(=O)[C@@H]2CCCN2C(=O)[C@@H]2CSC(=N2)c2ccnc(c2)C[C@@H](C(N)=O)NC1=O [2-10] | +++ (0.5<Pe (10^−6 cm/s)) | +++ (60%<HLM residual rate (%))
6 | N=C(N)NCCC[C@@H]1NC(=O)[C@H](Cc2c[nH]c3ccccc23)NC(=O)[C@@H](CC2CCCCC2)NC(=O)[C@@H]2CCCN2C(=O)[C@@H]2CSC(=N2)c2ccc(nc2)C[C@@H](C(N)=O)NC1=O [2-11] | +++ (0.5<Pe (10^−6 cm/s)) | +++ (60%<HLM residual rate (%))
7 | N=C(N)NCCC[C@@H]1NC(=O)[C@H](Cc2c[nH]c3ccccc23)NC(=O)[C@@H](CC2CCCCC2)NC(=O)[C@@H]2CCCN2C(=O)[C@@H]2CSC(=N2)c2ccc(nn2)C[C@@H](C(N)=O)NC1=O [2-15] |  | ++ (40%<HLM residual rate (%)≤60%)
8 | N=C(N)NCCC[C@@H]1NC(=O)[C@H](Cc2c[nH]c3ccccc23)NC(=O)[C@@H](CC2CCCCC2)NC(=O)[C@@H]2CCCN2C(=O)[C@@H]2CSC(=N2)c2cc(cs2)C[C@@H](C(N)=O)NC1=O [2-16] | +++ (0.5<Pe (10^−6 cm/s)) | ++ (40%<HLM residual rate (%)≤60%)
9 | N=C(N)NCCC[C@@H]1NC(=O)[C@H](Cc2c[nH]c3ccccc23)NC(=O)[C@@H](CC2CCCCC2)NC(=O)[C@@H]2CCCN2C(=O)[C@@H]2CSC(=N2)c2nc(cs2)C[C@@H](C(N)=O)NC1=O [2-18] |  | ++ (40%<HLM residual rate (%)≤60%)
10 | N=C(N)NCCC[C@@H]1NC(=O)[C@H](Cc2c[nH]c3ccccc23)NC(=O)[C@@H](CC2CCCCC2)NC(=O)[C@@H]2CCCN2C(=O)[C@@H]2CSC(=N2)c2csc(n2)C[C@@H](C(N)=O)NC1=O [2-19] | +++ (0.5<Pe (10^−6 cm/s)) | +++ (60%<HLM residual rate (%))
11 | N=C(N)NCCC[C@@H]1NC(=O)[C@H](Cc2c[nH]c3ccccc23)NC(=O)[C@@H](CC2CCCCC2)NC(=O)[C@@H]2CCCN2C(=O)[C@@H]2CSC(=N2)c2n[nH]cc2C[C@@H](C(N)=O)NC1=O [2-20] |  | ++ (40%<HLM residual rate (%)≤60%)
12 | CC1(C)SC2=N[C@@H]1C(=O)N1CCC[C@H]1C(=O)N[C@H](CC1CCCCC1)C(=O)N[C@@H](Cc1c[nH]c3ccccc13)C(=O)N[C@@H](CCCNC(=N)N)C(=O)N[C@H](C(N)=O)Cc1cccc2n1 [2-21] | +++ (0.5<Pe (10^−6 cm/s)) | +++ (60%<HLM residual rate (%))
13 | COc1cc2cnc1C1=N[C@@H](CS1)C(=O)N1CCC[C@H]1C(=O)N[C@H](CC1CCCCC1)C(=O)N[C@@H](Cc1c[nH]c3ccccc13)C(=O)N[C@@H](CCCNC(=N)N)C(=O)N[C@H](C(N)=O)C2 [2-22] | ++ (0.2<Pe (10^−6 cm/s)≤0.5) | +++ (60%<HLM residual rate (%))

The remaining lines, values ahead:

Row | Pe(10^−6 cm/sec) [1] | HLM residual rate [2] | Compound
14 | +++ (0.5<Pe (10^−6 cm/s)) | +++ (60%<HLM residual rate (%)) | N=C(N)NCCC[C@@H]1NC(=O)[C@H](Cc2c[nH]c3ccccc23)NC(=O)[C@@H](CC2CCCCC2)NC(=O)[C@@H]2CCCN2C(=O)[C@@H]2CSC(=N2)c2cc3cc(ccc3[nH]2)C[C@@H](C(N)=O)NC1=O [3-2]
15 |  | +++ (60%<HLM residual rate (%)) | N=C(N)NCCC[C@@H]1NC(=O)[C@H](Cc2c[nH]c3ccccc23)NC(=O)[C@@H](CC2CCCCC2)NC(=O)[C@@H]2CCCN2C(=O)[C@@H]2CSC(=N2)c2ncccc2C[C@@H](C(N)=O)NC1=O [3-3]
16 | +++ (0.5<Pe (10^−6 cm/s)) | +++ (60%<HLM residual rate (%)) | N=C(N)NCCC[C@@H]1NC(=O)[C@H](Cc2c[nH]c3ccccc23)NC(=O)[C@@H](CC2CCCCC2)NC(=O)[C@@H]2CCCN2C(=O)[C@@H]2CSC(=N2)c2cccc(c2)C[C@@H](C(N)=O)NC1=O [3-4] (P[dCha]WR[Phe(3-(4R-CO-2-thiazolinyl))]-NH2; lactam N-5)
17 | +++ (0.5<Pe (10^−6 cm/s)) | +++ (60%<HLM residual rate (%)) | N=C(N)NCCCC1NC(=O)[C@H](Cc2c[nH]c3ccccc23)NC(=O)[C@@H](CC2CCCCC2)NC(=O)[C@@H]2CCCN2C(=O)c2csc(n2)-c2cccc(c2)C[C@@H](C(N)=O)NC1=O (stereo partly shown) [6-1]
18 | + (0.01<Pe (10^−6 cm/s)≤0.2) | + (HLM residual rate (%)≤40%) | C[C@@H]1NC(=O)CSC[C@@H](C(N)=O)NC(=O)[C@H](CCCNC(=N)N)NC(=O)[C@H](Cc2c[nH]c3ccccc23)NC(=O)[C@@H](CC2CCCCC2)NC(=O)[C@@H]2CCCN2C1=O [7-1] ({CH2CO}-AP[dCha]WRC-NH2; thioether N-6)
19 | + (0.01<Pe (10^−6 cm/s)≤0.2) | + (HLM residual rate (%)≤40%) | CC(=O)N[C@H]1CSSC[C@@H](C(N)=O)NC(=O)[C@H](CCCNC(=N)N)NC(=O)[C@H](Cc2c[nH]c3ccccc23)NC(=O)[C@@H](CC2CCCCC2)NC(=O)[C@@H]2CCCN2C1=O [9-1] (Ac-CP[dCha]WRC-NH2; disulfide 1-6)
